Test results: ChEMBL document CHEMBL5046290, “Design, Synthesis, and Preclinical Profiling of GSK3739936 (BMS-986180), an Allosteric Inhibitor of HIV-1 Integrase with Broad-Spectrum Activity toward 124/125 Polymorphs” (J Med Chem, 2022)

Tests used:
[1] = Displacement of [3H](S)-2-(tert-butoxy)-2-(2-methyl-4-(p-tolyl)quinolin-3-yl)acetic acid from LEDGF-binding site of recombinant T124/T125 polymorphic HIV1 integrase by LIDIA assay; parameters: species or system Human immunodeficiency virus 1
[2] = tested on: Human immunodeficiency virus 1; assay: Antiviral activity against recombinant HIV1 NLRep-Rluc harbouring polymorphic T124/T125 integrase infected in human MT-2 cells assessed as inhibition of virus growth in presence of fetal bovine serum by measuring luciferase activity after 5 days; assay type: functional, organism-based, MT2
[3] = Cytotoxicity against human MT2 cells assessed as cell viability measured after 4 days by XTT assay; assay type: toxicity, cell-based; conditions: time 4 day
[4] = Metabolic stability in rat liver microsome assessed half life at 0.5 uM by LC-MS/MS analysis; assay type: ADME; conditions: liver microsomes
[5] = Metabolic stability in human liver microsome assessed half life at 0.5 uM by LC-MS/MS analysis; assay type: ADME; conditions: liver microsomes
[6] = Clearance in Sprague-Dawley rat at 1 mg/kg, iv by LC-MS/MS analysis; assay type: ADME, organism-based; conditions: in vivo
[7] = Human immunodeficiency virus 1, NLRep, MT2, 120 h

Structure (SMILES): Cc1nc(C)c([C@H](OC(C)(C)C)C(=O)O)c(N2CCC(C)(C)CC2)c1-c1ccc(OCCc2ccccn2)cc1
- IC50 [1]: 16.7 nM
- EC50 [2, 7]: 0.9 nM
- CC50 at 96 h [3]: ≥ 25000 nM
- half-life at 0.5 µM [4]: 1.02 h
- half-life at 0.5 µM [5]: 0.5 h

Structure (SMILES): Cc1cc(CCOc2ccc(-c3c(C)nc(C)c([C@H](OC(C)(C)C)C(=O)O)c3N3CCC(C)(C)CC3)cc2)ccc1F
- IC50 [1]: 21.1 nM
- EC50 [2, 7]: 4.8 nM
- CC50 at 96 h [3]: ≥ 33500 nM
- half-life at 0.5 µM [4]: > 2 h
- half-life at 0.5 µM [5]: > 2 h
- clearance [6]: 7.8 mL/min/kg

Structure (SMILES): Cc1nc(CCOc2ccc(-c3c(C)nc(C)c([C@H](OC(C)(C)C)C(=O)O)c3N3CCC(C)(C)CC3)cc2)cs1
- IC50 [1]: 32.6 nM
- EC50 [2, 7]: 5 nM
- CC50 at 96 h [3]: ≥ 25000 nM
- half-life at 0.5 µM [4]: 1.75 h
- half-life at 0.5 µM [5]: 0.683 h

Structure (SMILES): Cc1ccc(CCOc2ccc(-c3c(C)nc(C)c([C@H](OC(C)(C)C)C(=O)O)c3N3CCC(C)(C)CC3)cc2)s1
- IC50 [1]: 49.2 nM
- EC50 [2, 7]: 4.4 nM
- CC50 at 96 h [3]: ≥ 25000 nM
- half-life at 0.5 µM [4]: > 2 h
- half-life at 0.5 µM [5]: > 2 h

Structure (SMILES): Cc1nc(C)c([C@H](OC(C)(C)C)C(=O)O)c(N2CCC(C)(C)CC2)c1-c1ccc(OCCc2cc(F)c(F)cc2F)cc1
- IC50 [1]: 18.1 nM
- EC50 [2, 7]: 3.3 nM
- CC50 at 96 h [3]: ≥ 33500 nM
- half-life at 0.5 µM [4]: > 2 h
- half-life at 0.5 µM [5]: > 2 h
- clearance [6]: 8.1 mL/min/kg

Structure (SMILES): Cc1nc(C)c(CCOc2ccc(-c3c(C)nc(C)c([C@H](OC(C)(C)C)C(=O)O)c3N3CCC(C)(C)CC3)cc2)s1
- IC50 [1]: 11.7 nM
- EC50 [2, 7]: 1.1 nM
- CC50 at 96 h [3]: ≥ 25000 nM
- half-life at 0.5 µM [4]: > 2 h
- half-life at 0.5 µM [5]: 0.917 h
- clearance [6]: 30.1 mL/min/kg

Structure (SMILES): Cc1nc(C)c([C@H](OC(C)(C)C)C(=O)O)c(N2CCC(C)(C)CC2)c1-c1ccc(-c2ccccc2)cc1
- IC50 [1]: 30.7 nM
- EC50 [2, 7]: 31.2 nM
- CC50 at 96 h [3]: ≥ 20000 nM

Structure (SMILES): Cc1nc(C)c([C@H](OC(C)(C)C)C(=O)O)c(N2CCC(C)(C)CC2)c1-c1ccc(OCCc2ccccc2)cc1
- IC50 [1]: 9.4 nM
- EC50 [2, 7]: 2.3 nM
- CC50 at 96 h [3]: ≥ 20000 nM
- half-life at 0.5 µM [4]: > 2 h
- half-life at 0.5 µM [5]: > 2 h

Structure (SMILES): Cc1nc(C)c([C@H](OC(C)(C)C)C(=O)O)c(N2CCC(C)(C)CC2)c1-c1ccc(CCCc2ccc(F)cc2)cc1
- IC50 [1]: 73.3 nM
- EC50 [2, 7]: 22.6 nM
- CC50 at 96 h [3]: ≥ 32000 nM
- half-life at 0.5 µM [4]: > 2 h
- half-life at 0.5 µM [5]: > 2 h

Structure (SMILES): Cc1nc(C)c([C@H](OC(C)(C)C)C(=O)O)c(N2CCC(C)(C)CC2)c1-c1ccc(OCc2ccccc2)cc1
- IC50 [1]: 30.2 nM
- EC50 [2, 7]: 11.3 nM
- CC50 at 96 h [3]: ≥ 20000 nM

Structure (SMILES): Cc1nc(C)c([C@H](OC(C)(C)C)C(=O)O)c(N2CCC(C)(C)CC2)c1-c1ccc(OCCc2cc(F)ccc2F)cc1
- IC50 [1]: 14.7 nM
- EC50 [2, 7]: 2.8 nM
- CC50 at 96 h [3]: ≥ 33500 nM
- clearance [6]: 18.7 mL/min/kg

Structure (SMILES): Cc1nc(C)c([C@H](OC(C)(C)C)C(=O)O)c(N2CCC(C)(C)CC2)c1-c1ccc(OCCc2cccnc2)cc1
- IC50 [1]: 19.3 nM
- EC50 [2, 7]: 1.3 nM
- CC50 at 96 h [3]: ≥ 25000 nM
- half-life at 0.5 µM [4]: 0.783 h
- half-life at 0.5 µM [5]: 0.367 h

Structure (SMILES): CCc1cccc(CC)c1-c1cc(-c2ccc3c4c(ccnc24)CCO3)c(C(OC(C)(C)C)C(=O)O)c(C)n1 (racemic)
- IC50 [1]: 100000 nM
- EC50 [2, 7]: 190 nM

Structure (SMILES): Cc1nc(C)c([C@H](OC(C)(C)C)C(=O)O)c(N2CCC(C)(C)CC2)c1-c1ccc(OC2CCCC2c2ccc(F)cc2)cc1 (stereo in doubt; 39a)
- IC50 [1]: 35.5 nM
- EC50 ([2]; mt2): 12 nM
- CC50 at 96 h [3]: ≥ 32000 nM

Structure (SMILES): Cc1nc(C)c([C@H](OC(C)(C)C)C(=O)O)c(N2CCC(C)(C)CC2)c1-c1ccc(OC2CCCC2c2ccc(F)cc2)cc1 (stereo in doubt; 39b)
- IC50 [1]: 17.7 nM
- EC50 ([2]; mt2): 5 nM

Structure (SMILES): Cc1nc(C)c([C@H](OC(C)(C)C)C(=O)O)c(N2CCC(C)(C)CC2)c1-c1ccc(OC2COCC2c2ccc(F)cc2)cc1 (stereo in doubt; 40a)
- IC50 [1]: 4.9 nM
- EC50 ([2]; mt2): 2 nM
- CC50 at 96 h [3]: ≥ 32000 nM
